{"source": "patent US7094760B2", "about": "“Peptides for treatment of inflammation and shock” (Salpep Biotechnology, Inc., priority 1996, dated 2006)", "type_in_all_cases": "in vivo, rat", "key": {"[1]": {"tested_on": "ovalbumin-sensitized Sprague-Dawley rats", "experiment": "anaphylactic hypotension (VPSP), ovalbumin-sensitized rats, Example 8", "conditions": "intravenous, 100 μg/kg, 10 min prior to antigen", "procedure": "Animals and Tissue Preparation: Male Sprague-Dawley rats were sensitized to egg albumin (ovalbumin; OA) with 50 ng of Pertussin bortella toxin as an adjuvant. Four to six weeks after sensitization, the rats were anesthetized with sodium pentobarbital. A tracheal tube was inserted and a cannula was inserted into the left ventricle for measuring ventricular peak systolic pressure (VPSP). This cannula was coupled to a blood pressure transducer. A cannula was also inserted into the jugular view for administration of peptide (100 μg/kg) and antigen (100 μg of OA). The peptides were injected intravenously 10 min prior to antigen injection and blood pressure was recorded for 30 min.\nIn a second study, the peptide feG (D-phenylalanine, D-glutamate, glycine) was administered orally by a stomach tube 1 hour prior to intravenous injection of the sensitizing antigen.\nData Analysis: The percent changes in VSPS induced by anaphyalctic reaction were calculated relative to baseline VPSP. Significance differences within groups were determined with one-way analysis of variance (ANOVA), and between groups with the Student t-test."}, "[2]": {"tested_on": "endotoxin-induced fever in rats", "experiment": "endotoxin-induced fever, Example 12", "conditions": "late phase (180–420 minutes); injected immediately before ip 150 μg/kg LPS", "procedure": "Rats were operated on to remove salivary glands (or controls were sham-operated) one week before challenge with endotoxin. At the time of operation, a temperature sensitive radio transmitter was inserted in the peritoneal cavity. One week after operation, baseline temperatures were recorded by telemetry and SGP-T or saline was injected immediately before intra-peritoneal injection of 150 μg/kg LPS. Temperature was followed for 12 hours. SGP-T suppressed a late phase (180–420 minutes) of endotoxin-induced fever."}, "[3]": {"tested_on": "LPS (Salmonella typhosa)-induced hypotension in sialadenectomized rats", "experiment": "endotoxin (LPS)-induced hypotension, sialadenectomized rats", "procedure": "The animal model of endotoxic shock used involves intravenous injection of endotoxin (3.5 mg/kg of lipopolysaccharide (LPS) from Salmonella typhosa) into pentobarbital-anaesthetized Sprague-Dawley rats, to produce a fall in mean arterial blood pressure within 3 to 5 minutes. The endotoxin was injected slowly over 1 min. via the jugular vein, and mean arterial blood pressure in mm mercury (MABP) was monitored continuously for 60 min, with the average blood pressure being calculated at 15, 30, 45 and 60 min. Studies were performed on unoperated rats and rats with their submandibular glands removed (sialadenectomized).\nThe results shown in Table 1 are the averages of three different experiments using the protocol defined above. The data shown represent the average decrease in MABP (dec MABP) and the % Decrease in MABP over the 60 minutes following LPS administration. SGP-S (100μg/kg) and SGP-T (100 μg/kg) were administered 90 min. before LPS. […] Neither SGP-T nor SGP-S, when given prior to the LPS challenge, had appreciable effects on MABP.\nThe dose-response relationship of the inhibitory effect of SGP-T and SGP-S on endotoxin-induced hypotension was also examined and the results are shown in FIG. 1."}, "[4]": {"tested_on": "ovalbumin-sensitized Sprague-Dawley rats, submandibular glands removed", "experiment": "anaphylactic hypotension and heart function (VPSP, dP/dt), Example 10", "conditions": "for integrated (average) decrease in VPSP over the 30 min: 10 min prior to antigen, saline control 46.2±6.5", "procedure": "Methods: Sprague-Dawley rats (200–300 g) were sensitized with 1 mg ovalbumin and 50 ng Pertussin toxin (Sigma) (24) one month prior to experimentation. The submandibular glands were removed bilaterally 7 days prior to the experiment by previously described procedures (23). Rats were anesthetized with sodium pentobarbital (65 mg/kg) and a tracheal tube (PE240 polyethylene tubing) was inserted before performing further surgeries. The jugular vein was-cannulated for injection of ovalbumin antigen, which was given as a bolus (100 μg/kg) over 10 sec. The right carotid artery was cannulated and the cannula tip was slowly advanced into the left ventricle, as detected when diastolic pressure fell to near 0 mmHg. The ventricular cannula was connected to a TXD-310 transducer and heart function parameters were recorded using a Digi-Med Heart Performance Analyser (Micro-Med, Louisville, Ky.). The effects of anaphylaxis on heart function were analysed by comparing the changes in ventricular peak systolic pressure (VPSP), and in the rate of ventricular contraction during systole (dP/dt) and relaxation during distole (−dP/dt). Antigen was injected at 10 min. The anaphylactic response was followed for 30 min.\nVery rapidly (within 1 min) after the intravenous injection of antigen into ovalbumin-sensitized rats, VPSP dropped and minimal ventricular pressures were measured at 5 min after initiation of the anaphylactic reaction.\nTo determine if anaphylaxis directly affected heart function, the percent changes in VPSP were plotted against percent changes in dP/dt and −dP/dt. […] By analysis of variance, the slopes of the regression lines of dP/dt and −dP/dt were not different from unity."}, "[5]": {"tested_on": "neutrophils from carrageenin-soaked sponges", "experiment": "superoxide production by neutrophils from carrageenin-soaked sponges of treated rats", "conditions": "intravenous SGP-T 4 hr. before implantation of the sponge", "procedure": "Under halothane anaesthesia the sponge was removed from its subcutaneous site and the fluid was squeezed from it into a test tube. Following centrifugation at 2,000 g for 10 min, the exudate was decanted and the remaining cells were suspended in 4 ml of 0.9% saline, and their number determined using a Coulter Counter. One ml of the remaining cell suspension was extracted for use in the superoxide assay.\nNeutrophils (10^6) were suspended in PBS buffer of the following composition: NaCl 137 mM, KCl 2.7 mM, Na2HPO4, 8.1 mM, KH2PO4 1.47 mM, CaCl2 1.19 mM, MgCl2 0.54 mM, glucose 7.5 mM and cytochrome C 1.5 mM (Sigma Chemical Co. St. Louis, […].) incubated at 37 C. Each sample was read along with a reference sample containing 1440 units of superoxide dismutase (Sigma) in a spectrophotometer (Hitachi, U200 spectrophotometer). The rate of superoxide production in response to 10^−7M phorbol myristate acetate (PMA) or 10^−5 M N-formyl-methionyl-leucyl-phenylalanine (fMLP) was then inferred from the slope. […]\nIntravenous injections of SGP-T inhibited neutrophil influx into a carrageenin-soaked sponge in a dose-dependent manner (FIG. 4). When the ability of neutrophils obtained from the carrageenin-soaked sponges to generate superoxide anion was evaluated, those obtained from saline-treated rats were totally refractory to f MLP and phorbol myristate acetate (PMA)."}, "[6]": {"conditions": "peptide 100 μg/kg 90 min before LPS 3.5 mg/kg iv"}}, "note": "“Also recorded” adds a separate entry of the source."}
{"substance": "NH2-Thr-Asp-Ile-Phe-Glu-Gly-Gly-COOH (H-TDIFEGG-OH) [SGP-T, submandibular gland peptide T, TDIFEGG]", "values": [{"measurement": "anaphylactic hypotension (VPSP)", "setting": "[1]", "result": "significantly inhibited"}, {"measurement": "endotoxin-induced fever", "setting": "[2]", "result": "suppressed"}, {"measurement": "prevention of shock", "setting": "[3]; doses higher than 10 μg/kg", "result": "less effective"}, {"measurement": "LPS-provoked drop in blood pressure", "setting": "[3]; doses of 1, 3.5 and 10 μg/kg", "result": "significantly prevented"}, {"measurement": "decrease in blood pressure induced by LPS, dose-response", "setting": "[3]; intravenously 1.5 hours before LPS", "result": "dose-dependently inhibited"}, {"measurement": "% Dec = percent decrease in MABP relative to MABPbef", "setting": "[3]; [6]", "result": "−36.3 ± 3.3", "unit": "%"}, {"measurement": "MABPaft = average MABP for 60 mins after LPS injection", "setting": "[3]; [6]", "result": "77.2 ± 3.9", "unit": "mm Hg"}, {"measurement": "dec MABP = decrease in MABP after LPS relative to MABPbef", "setting": "[3]; [6]", "result": "−46.1 ± 4.9", "unit": "mm Hg"}, {"measurement": "integrated (average) decrease in VPSP over the 30 min", "setting": "[4]; 10 μg/kg", "result": "16.7±8.3", "unit": "mm Hg"}, {"measurement": "integrated (average) decrease in VPSP over the 30 min", "setting": "[4]; 100 μg/kg", "result": "15.9±8.0", "unit": "mm Hg"}, {"measurement": "VPSP by the end of the experiment", "setting": "[4]; 10 and 100 μg/kg, 30 min after antigen", "result": "attained pre-antigen values"}, {"measurement": "initial anaphylactic reaction (initial blood pressure drop)", "setting": "[4]; FIG. 12", "result": "does not prevent"}, {"measurement": "sustained anaphylactic reaction", "setting": "[4]; FIG. 12", "result": "does prevent"}, {"measurement": "drop in blood pressure elicited by the anaphylactic reaction", "setting": "[4]; doses of 35 and 100 μg/kg", "result": "significantly reduced"}, {"measurement": "anaphylactic hypotension / decrease in VPSP provoked by antigen", "setting": "[4]; injected 10 min prior to antigen (100 μg/kg)", "result": "protected the rats against anaphylactic hypotension; also recorded: reduced significantly"}, {"measurement": "protection against antigen elicited hypotension", "setting": "[4]; lower (10 μg/kg) and higher (350 μg/kg) doses", "result": "Neither lower (10 μg/kg) nor higher doses (350 μg/kg) of SGP-T protected"}, {"measurement": "superoxide generation in response to fMLP and PMA by sponge neutrophils", "setting": "[5]", "result": "able to generate substantial amounts of superoxide"}]}
